Source: patent US20260042764A1, “COMPOSITIONS AND METHODS FOR INHIBITION OF KRAS” (TheRas, Inc., priority 2022, published 2026)

How the values were obtained:
HPAC cells (KRAS G12D) [1] = experiment: Cell-based pERK HTRF assay in HPAC cells (Biological Example 5); details: Homo sapiens, HPAC
Method in brief: (§1)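 A two-hour compound treatment (0.25% DMSO) of cells seeded the previous day preceded lysis and HTRF phospho-ERK1/2 detection. EC50 values were fitted by variable-slope four-parameter regression.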

AsPC-1 cells (KRAS G12D) [2] = experiment: 3D Cell viability assay in AsPC-1 cells (Biological Example 6); type: cell-based; details: Homo sapiens, ASPC1; AsPC-1 (KRAS G12D) spheroids, 72 hours
Method in brief: (§2)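 EC50 values come from a four-parameter variable-slope fit of CellTiter-Glo 3D luminescence in spheroid cultures treated 72 h with a nine-point, three-fold dilution series.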

H358 cells (KRAS G12C) [3] = experiment: Cell-based pERK HTRF assay in H358 cells (Biological Example 5); details: Homo sapiens, NCI-H358, H358 (KRAS G12C) cells
Method in brief: as §1

[4] = tested on: Capan-2 cells (KRAS G12V); experiment: 3D Cell viability assay in Capan-2 cells (Biological Example 6); type: cell-based; details: Homo sapiens; Capan-2 (KRAS G12V) spheroids, 72 hours
Method in brief: as §2

HT1080 cells (NRAS) [5] = experiment: 3D Cell viability assay in HT1080 cells (Biological Example 6); type: cell-based; details: Homo sapiens, HT-1080; HT1080 (NRAS) spheroids, 72 hours
Method in brief: as §2

[6] = tested on: MKN1 cells (KRAS amplification); experiment: 3D Cell viability assay in MKN1 cells (Biological Example 6); type: cell-based; details: Homo sapiens, MKN-1; MKN (MKN1, KRAS amplification) spheroids, 72 hours
Method in brief: as §2

KP-2 cells (KRAS G12R) = experiment: Cell-based pERK HTRF assay in KP-2 cells (Biological Example 5); details: KP-2 (KRAS G12R) cells
Description: (§3) Biological Example 5: Cell-based PERK HTRF assay in AsPC-1, SW1900, HPAC, Capan-2, RKN, H358, HCT116, KP-2, H1573, A549, MKN1, and HT1080 cells
(§4) The inhibition of ERK phosphorylation, as measured using the HTRF Advanced Phospho-ERK 1/2 (Thr202/Tyr204) Detection Assay kit (Perkin Elmer), was used to determine the effectiveness of test compounds in disrupting KRAS-driven protein/effector signaling in cells.
(§5) On day 1, cells were seeded into 96-well plates at 2.5×10^4 cells/well in 100 μL of complete growth media supplemented with 10% fetal bovine serum (FBS) and incubated at 37° C., in the presence of 5% CO2.
(§6) On day 2, cells were treated with compounds diluted in DMSO at 0.25% final DMSO concentration. Compounds were dosed in a 9-point concentration curve with three-fold dilution between concentrations. Cells were incubated in the presence of compound for two hours at 37° C. Following this treatment period, cells were harvested by aspirating the media, adding 40 μL of kit-supplied 1x lysis buffer per well, and shaking for 30 minutes at 250 rpm at room temperature.
(§7) Following cell lysis, samples were homogenized by pipetting up and down twenty times and 16 μL of cell lysate per well was transferred from the 96-well cell culture plate to two wells of a 384-well detection plate. A complete detection buffer was prepared by diluting D2 and Eu Cryptate antibodies 1:20 in kit-provided detection solution, 4 μL of complete detection buffer was then added to each well with lysate. Plates were incubated with gentle rocking for 24 hours at 4° C.
(§8) Following this incubation period, plates were centrifuged at 500×g for one minute and analyzed on a CLARIOstar plate reader. Data was imported into Microsoft Excel and the signal from the 665 nm channel was divided by the signal from the 620 nm channel. % pERK was calculated as: […]
(§9) Data was imported to the Prism software package (Graphpad) and EC50 values were calculated using the log (inhibitor) vs, response—variable slopc (Four parameters) model.

SW1900 cells (KRAS G12D) [7] = experiment: Cell-based pERK HTRF assay in SW1900 cells (Biological Example 5); details: Homo sapiens, SW1990, SW1990 cells (text: SW1900, KRAS G12D)
Method in brief: as §1

[8] = tested on: Capan-2 cells (KRAS G12V); experiment: Cell-based pERK HTRF assay in Capan-2 cells (Biological Example 5); details: Homo sapiens, Capan-2, Capan-2 (KRAS G12V) cells
Method in brief: as §1

HT1080 cells (NRAS) [9] = experiment: Cell-based pERK HTRF assay in HT1080 cells (Biological Example 5); details: Homo sapiens, HT-1080
Method in brief: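 Cells seeded at 2.5×10^4/well in 10% FBS medium overnight, then treated 2 h at 37 °C with a 9-point, 3-fold compound series (0.25% DMSO). Lysates read by HTRF for pERK1/2 (Thr202/Tyr204), 665/620 nm ratio; EC50 from four-parameter fit.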

[10] = tested on: MKN1 cells (KRAS amplification); experiment: Cell-based pERK HTRF assay in MKN1 cells (Biological Example 5); details: Homo sapiens, MKN-1, MKN cells (MKN1, KRAS amplification)
Method in brief: as §1

AsPC-1 cells (KRAS G12D) [11] = experiment: Cell-based pERK HTRF assay in AsPC-1 cells (Biological Example 5); details: Homo sapiens, ASPC1, AsPC-1 (KRAS G12D) cells
Method in brief: as §1

HPAC cells (KRAS G12D) [12] = experiment: 3D Cell viability assay in HPAC cells (Biological Example 6); type: cell-based; details: Homo sapiens, HPAC, 72 h, HPAC (KRAS G12D) spheroids
Method in brief: as §2

SW1900 cells (KRAS G12D) [13] = experiment: 3D Cell viability assay in SW1900 cells (Biological Example 6); type: cell-based; details: Homo sapiens; SW1990 (text: SW1900, KRAS G12D) spheroids, 72 hours
Method in brief: as §2

H358 cells (KRAS G12C) [14] = experiment: 3D Cell viability assay in H358 cells (Biological Example 6); type: cell-based; details: Homo sapiens, NCI-H358; H358 (KRAS G12C) spheroids, 72 hours
Method in brief: as §2

H1573 cells (KRAS G12A) = experiment: Cell-based pERK HTRF assay in H1573 cells (Biological Example 5); details: Homo sapiens, NCI-H1573
Description: as §3, §4, §5, §6, §7, §8, §9

RKN cells (KRAS G12V) [15] = experiment: Cell-based pERK HTRF assay in RKN cells (Biological Example 5)
Method in brief: as §1

RKN cells (KRAS G12V) [16] = experiment: 3D Cell viability assay in RKN cells (Biological Example 6); type: cell-based; details: RKN (KRAS G12V) spheroids, 72 hours
Method in brief: as §2

Structure (SMILES)	IC50 (HPAC cells (KRAS G12D) [1])	IC50 (AsPC-1 cells (KRAS G12D) [2])	IC50 (H358 cells (KRAS G12C) [3])	IC50 [4]	IC50 (HT1080 cells (NRAS) [5])	IC50 [6]	IC50 (KP-2 cells (KRAS G12R))	IC50 (SW1900 cells (KRAS G12D) [7])	IC50 [8]	IC50 (HT1080 cells (NRAS) [9])	IC50 [10]	IC50 (AsPC-1 cells (KRAS G12D) [11])	IC50 (HPAC cells (KRAS G12D) [12])	IC50 (SW1900 cells (KRAS G12D) [13])	IC50 (H358 cells (KRAS G12C) [14])	IC50 (H1573 cells (KRAS G12A))	IC50 (RKN cells (KRAS G12V) [15])	IC50 (RKN cells (KRAS G12V) [16])
CCN(c1nc(OC[C@@]23CCCN2C[C@H](F)C3)nc2c(F)c(-c3ccc(F)c4sc(N)c(C#N)c34)c(C(F)(F)F)cc12)[C@H]1CCN(C(=O)N(C)C)C1 (atropisomer, axis not shown) [Compound 540, (3S)-3-[[7-(2-amino-3-cyano-7-fluoro-benzothiophen-4-yl)-8-fluoro-2-[[(2R,8S)-2-fluoro-1,2,3,5,6,7-hexahydropyrrolizin-8-yl]methoxy]-6-(trifluoromethyl)quinazolin-4-yl]-ethyl-amino]-N,N-dimethyl-pyrrolidine-1-carboxamide]	≤ 100 nM	100 to 1000 nM	≤ 100 nM	≤ 100 nM	> 1000 nM	≤ 100 nM	≤ 100 nM	≤ 100 nM	≤ 100 nM	> 1000 nM	≤ 100 nM	100 to 1000 nM	100 to 1000 nM	≤ 100 nM	≤ 100 nM	≤ 100 nM	–	–
CCC(=O)N1CC[C@@H](N(CC)c2nc(OC[C@@]34CCCN3C[C@H](F)C4)nc3c(F)c(-c4ccc(F)c5sc(N)c(C#N)c45)c(C(F)(F)F)cc23)[C@H]1C (atropisomer, axis not shown) [Compound 523]	≤ 100 nM	100 to 1000 nM	≤ 100 nM	≤ 100 nM	> 1000 nM	≤ 100 nM	≤ 100 nM	≤ 100 nM	≤ 100 nM	> 1000 nM	≤ 100 nM	100 to 1000 nM	> 1000 nM	≤ 100 nM	≤ 100 nM	≤ 100 nM	–	–
CCN(c1nc(OC[C@@]23CCCN2C[C@H](F)C3)nc2c(F)c(-c3ccc(F)c4sc(N)c(C#N)c34)c(C(F)(F)F)cc12)[C@H]1CCN(C(=O)C(C)C)C1 (single isomer, unassigned) [Compound 469]	100 to 1000 nM	≤ 100 nM	≤ 100 nM	≤ 100 nM	> 1000 nM	≤ 100 nM	100 to 1000 nM	≤ 100 nM	≤ 100 nM	> 1000 nM	≤ 100 nM	≤ 100 nM	≤ 100 nM	≤ 100 nM	≤ 100 nM	≤ 100 nM	≤ 100 nM	≤ 100 nM
CCN(c1nc(OC[C@@]23CCCN2C[C@H](F)C3)nc2c(F)c(-c3ccc(F)c4sc(N)c(C#N)c34)c(C(F)(F)F)cc12)[C@H]1CCN(C(=O)OC)C1 (atropisomer, axis not shown) [Compound 541, methyl(3S)-3-[[7-(2-amino-3-cyano-7-fluoro-benzothiophen-4-yl)-8-fluoro-2-[[(2R,8S)-2-fluoro-1,2,3,5,6,7-hexahydropyrrolizin-8-yl]methoxy]-6-(trifluoromethyl)quinazolin-4-yl]-ethyl-amino]pyrrolidine-1-carboxylate]	≤ 100 nM	≤ 100 nM	≤ 100 nM	≤ 100 nM	> 1000 nM	≤ 100 nM	100 to 1000 nM	≤ 100 nM	≤ 100 nM	> 1000 nM	≤ 100 nM	≤ 100 nM	≤ 100 nM	≤ 100 nM	≤ 100 nM	≤ 100 nM	≤ 100 nM	≤ 100 nM
Cc1c(C(=O)N(C)C)nn2c1CN(c1nc(OC[C@@]34CCCN3C[C@H](F)C4)nc3c(F)c(-c4ccc(F)c5sc(N)c(C#N)c45)c(C(F)(F)F)cc13)CC2 [Compound 501]	≤ 100 nM	≤ 100 nM	≤ 100 nM	≤ 100 nM	–	≤ 100 nM	100 to 1000 nM	≤ 100 nM	≤ 100 nM	–	≤ 100 nM	≤ 100 nM	100 to 1000 nM	≤ 100 nM	≤ 100 nM	100 to 1000 nM	≤ 100 nM	≤ 100 nM
CCN(c1nc(OC[C@@]23CCCN2C[C@H](F)C3)nc2c(F)c(-c3ccc(F)c4sc(N)c(C#N)c34)c(C(F)(F)F)cc12)[C@@H]1CCN(C(=O)C2CC2)[C@@H]1C (atropisomer, axis not shown) [Compound 524]	≤ 100 nM	100 to 1000 nM	≤ 100 nM	≤ 100 nM	> 1000 nM	≤ 100 nM	≤ 100 nM	≤ 100 nM	≤ 100 nM	> 1000 nM	≤ 100 nM	100 to 1000 nM	> 1000 nM	≤ 100 nM	≤ 100 nM	≤ 100 nM	–	–
CCN(c1nc(OC[C@@]23CCCN2C[C@H](F)C3)nc2c(F)c(-c3ccc(F)c4sc(N)c(C#N)c34)c(C(F)(F)F)cc12)[C@H]1C[C@@H]2COC(=O)N2C1 (atropisomer, axis not shown) [Compound 519]	100 to 1000 nM	≤ 100 nM	≤ 100 nM	≤ 100 nM	–	≤ 100 nM	–	≤ 100 nM	≤ 100 nM	–	≤ 100 nM	≤ 100 nM	100 to 1000 nM	≤ 100 nM	≤ 100 nM	–	≤ 100 nM	≤ 100 nM
